According to ChEMBL document CHEMBL1201862, “PubChem BioAssay data set” (2004):
The source made the active and inactive calls.

Key:
[1] = target: T1, CAAX prenyl protease 2 (Saccharomyces cerevisiae S288c, UniProt Q03530); type: biochemical
T1 sequence (Q03530 whole entry): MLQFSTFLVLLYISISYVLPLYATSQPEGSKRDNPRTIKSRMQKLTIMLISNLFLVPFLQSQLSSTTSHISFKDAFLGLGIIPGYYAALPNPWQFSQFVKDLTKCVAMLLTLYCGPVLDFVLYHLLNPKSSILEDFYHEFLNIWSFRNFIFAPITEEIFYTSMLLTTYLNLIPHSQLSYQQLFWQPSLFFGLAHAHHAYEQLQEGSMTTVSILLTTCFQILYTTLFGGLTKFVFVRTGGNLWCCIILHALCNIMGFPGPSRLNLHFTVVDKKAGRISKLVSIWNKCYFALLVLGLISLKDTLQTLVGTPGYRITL

[2] = target: T2, Sentrin-specific protease 6 (Homo sapiens, UniProt Q9GZR1); type: functional;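 also: Luminescence-based dose-response confirmatory assay of SENP6 inhibition, following up an ultra-high-throughput screen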
T2 sequence (Q9GZR1 whole entry): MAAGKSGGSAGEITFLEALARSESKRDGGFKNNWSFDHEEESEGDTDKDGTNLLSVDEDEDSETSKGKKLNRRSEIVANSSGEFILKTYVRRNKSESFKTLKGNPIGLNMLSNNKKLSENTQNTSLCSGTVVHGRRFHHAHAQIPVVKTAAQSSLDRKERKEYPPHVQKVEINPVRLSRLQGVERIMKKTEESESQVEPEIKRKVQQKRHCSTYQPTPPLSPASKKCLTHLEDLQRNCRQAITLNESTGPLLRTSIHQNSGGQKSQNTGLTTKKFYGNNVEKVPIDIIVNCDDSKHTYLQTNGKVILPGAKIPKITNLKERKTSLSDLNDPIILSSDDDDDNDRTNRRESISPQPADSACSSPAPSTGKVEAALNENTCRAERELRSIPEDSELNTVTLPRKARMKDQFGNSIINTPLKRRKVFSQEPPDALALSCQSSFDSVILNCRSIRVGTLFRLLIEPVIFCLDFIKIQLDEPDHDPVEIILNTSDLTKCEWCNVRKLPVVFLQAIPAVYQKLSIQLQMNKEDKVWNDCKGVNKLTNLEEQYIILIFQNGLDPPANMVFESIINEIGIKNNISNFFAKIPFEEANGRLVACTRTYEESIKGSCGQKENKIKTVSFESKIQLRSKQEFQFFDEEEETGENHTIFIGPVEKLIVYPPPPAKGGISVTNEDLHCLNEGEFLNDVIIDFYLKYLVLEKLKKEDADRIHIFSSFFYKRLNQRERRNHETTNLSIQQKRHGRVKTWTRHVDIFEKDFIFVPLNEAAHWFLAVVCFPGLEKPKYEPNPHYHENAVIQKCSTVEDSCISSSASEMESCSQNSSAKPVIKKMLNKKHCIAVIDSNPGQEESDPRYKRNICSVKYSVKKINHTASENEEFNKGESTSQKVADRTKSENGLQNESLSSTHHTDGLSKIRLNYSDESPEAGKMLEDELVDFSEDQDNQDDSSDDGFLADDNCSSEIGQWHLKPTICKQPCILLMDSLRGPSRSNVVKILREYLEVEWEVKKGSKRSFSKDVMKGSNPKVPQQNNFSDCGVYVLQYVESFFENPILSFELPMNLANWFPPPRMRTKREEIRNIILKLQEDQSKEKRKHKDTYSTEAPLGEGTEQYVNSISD

[3] = target: Serine/threonine-protein phosphatase (Homo sapiens, UniProt Q9BPW0); test: PP5 phosphatase inhibitors, dose response, biochemical, fluorescence (AID 2395)
[4] = target: Dual specificity protein phosphatase 6 (Rattus norvegicus, UniProt Q64346); test: MKP-3 phosphatase inhibitors, primary screen, biochemical, rat enzyme, in vitro (AID 425)
[5] = target: Alkaline phosphatase, tissue-nonspecific isozyme (Homo sapiens, UniProt P05186)
[6] = system: HEK293; test: optical interference in Abeta FP readout, dose response, artefact control for IDE activator project, biochemical, fluorescence polarization (AID 588442); type: functional, cell-based; conditions: Homo sapiens
[7] = target: Beta-lactamase (Pseudomonas aeruginosa, UniProt Q79MP6);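 also: biochemical dose-response test of metallo-beta-lactamase enzyme inhibition, read out by epi-absorbance; purified recombinant IMP-1 metallo-beta-lactamase with nitrocefin as substrate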
[8] = target: Nonstructural protein 1 (Influenza A virus, UniProt Q194T2); type: functional, Influenza A virus (A/California/07/2009(H1N1))
[9] = target: T3, Insulin-degrading enzyme (Homo sapiens, UniProt P14735); test: activators of endogenous IDE in HEK cells, dose response, cell-based, fluorescence polarization (AID 588439); type: functional
T3 sequence (P14735 whole entry): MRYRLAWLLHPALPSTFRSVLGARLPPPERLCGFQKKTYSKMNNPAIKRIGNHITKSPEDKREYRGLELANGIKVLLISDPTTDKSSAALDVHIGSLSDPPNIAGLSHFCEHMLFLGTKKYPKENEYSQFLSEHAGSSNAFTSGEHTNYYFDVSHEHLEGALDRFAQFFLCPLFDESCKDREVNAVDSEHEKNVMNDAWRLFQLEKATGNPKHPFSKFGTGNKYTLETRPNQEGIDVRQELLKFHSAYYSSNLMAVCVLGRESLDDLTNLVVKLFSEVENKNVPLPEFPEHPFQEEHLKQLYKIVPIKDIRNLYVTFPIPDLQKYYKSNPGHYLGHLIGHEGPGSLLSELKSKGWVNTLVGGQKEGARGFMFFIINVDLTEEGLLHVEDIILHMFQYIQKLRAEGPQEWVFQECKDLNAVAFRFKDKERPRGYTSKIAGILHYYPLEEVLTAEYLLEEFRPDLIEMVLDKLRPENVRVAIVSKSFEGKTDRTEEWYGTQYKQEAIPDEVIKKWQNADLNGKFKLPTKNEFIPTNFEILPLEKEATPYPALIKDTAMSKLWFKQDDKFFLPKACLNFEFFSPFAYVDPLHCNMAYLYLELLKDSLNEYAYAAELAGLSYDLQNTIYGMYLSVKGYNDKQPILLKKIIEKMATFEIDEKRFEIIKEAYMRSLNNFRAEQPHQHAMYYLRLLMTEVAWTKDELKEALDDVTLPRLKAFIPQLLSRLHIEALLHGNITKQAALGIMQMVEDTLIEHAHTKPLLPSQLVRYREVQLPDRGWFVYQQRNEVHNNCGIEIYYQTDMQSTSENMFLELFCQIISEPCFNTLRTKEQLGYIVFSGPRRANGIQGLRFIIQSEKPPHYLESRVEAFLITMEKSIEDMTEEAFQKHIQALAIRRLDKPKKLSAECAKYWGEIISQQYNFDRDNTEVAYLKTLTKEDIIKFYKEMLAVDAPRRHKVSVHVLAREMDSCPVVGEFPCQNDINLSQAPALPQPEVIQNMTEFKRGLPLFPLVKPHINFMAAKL

[10] = system: HEK293; test: HEK cell cytotoxicity by LDH release, dose response, cytotoxicity control for IDE activator project, fluorescence, HEK cells (AID 588440); type: functional, cell-based; conditions: Homo sapiens;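 also: cytotoxicity by LDH release measuring loss of membrane integrity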

In the case of `CCCCCCCCCCOC(=O)C[n+]1c(COc2ccccc2C)n(C)c2ccccc21`, the AC50 [1] is reported as 8.72 µM (active).

For `Oc1nc(Nc2ccccc2)cc2ccccc12`, the IC50 [2] was 0.345 µM (active), the IC50 [3] was 31.6 µM (not active) and the IC50 [4] was > 100 µM (not active).

For `COc1cc(OC)c(-c2c3cc(O)c(=O)cc-3oc3cc(O)c(O)cc23)cc1OC`, the EC50 [5] was > 100 µM (not active), the EC50 [6] was > 6.21 µM (active) and the IC50 [7] was 5.62 µM (active). The IC50 [8] was 41.7 µM (active), the EC50 [9] was > 54.7 µM (inactive) and the IC50 [10] was > 89.2 µM (inactive).
